Biological target: T1, human GPR84 receptor (Homo sapiens, UniProt Q9NQS5)
T1 construct: host or cells: HEK293, transient transfection
Experiment: Gαi biosensor BRET assay in HEK293 cells (antagonism of ZQ-16)
Format: cell-based
Conditions: for inhibition at 10 µM: HEK293, single concentration 10 μM (designated F); for IC50: HEK293 cells, antagonism of 200 nmol/L ZQ-16; for inhibition at 2 µM: HEK293, single concentration 2 μM (designated A); for inhibition at 25 µM: HEK293, single concentration 25 μM (designated I)
From the text: Background—The following assays can be used for determination of GPR84 activation in living HEK293 cells. The Gai BRET biosensor (Gagnon et al., 2018; Gales et al., 2006. Nat StructMol Biol. 13, 778-86; Saulieres et al., 2012. Nat Chem Biol. 8, 622-30) allows to directly monitor GPR84-mediated activation of Gai. The Gai biosensor consists of a Rluc8-tagged Gαi2 subunit, a GFP10-tagged Gγ2 subunit, and an untagged Gβ1. Agonist stimulation and GPR84 activation triggers a physical separation between the RLuc8-Gαi donor and the GFP10-Gγ2 acceptor, resulting in a decrease in BRET signal whose amplitude is correlated to ligand efficacy (Gales et al., 2006). Moreover, signaling functions of GPCRs are tightly regulated by endocytosis, the targeting of receptors to endosomes and their sorting to lysosomes or recycling to the plasma membrane. The early endosomes (EEs) trafficking assay (Namkung et al., 2016. Nat Commun. 7, 12178) uses Rluc8-tagged GPR84 and Renilla GFP (rGFP) attached to the FYVE domain from human endofin/zinc finger FYVE domain-containing protein 16, which binds phosphatidylinositol 3-phosphate in EEs. Agonist stimulation of GPR84-Rluc8 leads to trafficking of the receptor to EEs, and ensuing increase of the donor concentration relative to the rGFP-FYVE acceptor anchored in the same cellular compartment, and thus results in an increase in BRET signal.
Plasmids—The cDNA clones for human GPR84 receptor, human Gai2, Gp1, and Gy2 were obtained from the cDNA Resource Center (www.cdna.org). GFP10 (F64L, S147P, S202F and H231L variant of Aequorea victoria Green Fluorescent Protein) gBlocks gene fragments (Integrated DNA Technologies, IA) and linker were inserted in frame at the N-terminus of human Gγ2. Rluc8 (A55T, C124A, S130A, K136R, A143M, M185V, M253L, and S287L variant of the Renilla renformis luciferase) gBlocks gene fragment was inserted with linkers in frame in between residues 91 and 92 of Gai2 or at the C-terminus of GPR84. The FYVE domain from human endofin (residues Q739 to K806) attached in frame at the C terminus of a humanized Renilla GFP (rGFP), were synthesized as gBlocks gene fragments.
Bioluminescence Resonance Energy Transfer (BRET) Measurement—HEK293 cells were transfected with GPR84-Rluc8 and rGFP-FYVE for the EEs trafficking biosensor or with GPR84, Gαi2-Rluc8, GFP10-Gγ2, and Gβ1 for the Gαi biosensor. The following day, transiently transfected cells were seeded in 96-well white clear bottom microplates coated with poly-D-lysine and left in culture for 24 hours. Cells were washed once with Tyrode's buffer (140 mmol/L NaCl, 1 mmol/L CaCl2, 2.7 mmol/L KCl, 0.49 mmol/L MgCl2, 0.37 mmol/L NaH2PO4, 5.6 mmol/L glucose, 12 mmol/L NaHCO3, and 25 mmol/L HEPES, pH 7.5) before performing assays in Tyrode's buffer. Test compounds were incubated with cells for 5 (Gαi) or 15 (EEs) minutes at 37° C. before addition of 200 nmol/L of the GPR84 agonist ZQ-16 (2-(Hexylthio)-6-hydroxy-4(3H)-pyrimidinone) for 5 minutes at room temperature (Gαi) or 30 minutes at 37° C. (EEs). The Rluc8 substrate coelenterazine 400A (Prolume, Lakeside, AZ) was added at a final concentration of 5 μmol/L and BRET readings were collected using an Infinite M1000 microplate reader (Tecan, Morrisville, NC). BRET^2 readings between Rluc8 and GFP10 or rGFP were collected by sequential integration of the signals detected in the 370 to 450 nm (Rluc8) and 510 to 540 nm (GFP10, rGFP) windows. The BRET signal was calculated as the ratio of light emitted by acceptor (GFP10, rGFP) over the light emitted by donor (Rluc8). The values were corrected to net BRET by subtracting the background BRET signal obtained in cells transfected with Rluc8 constructs alone. Ligand-promoted net BRET values were calculated by subtracting vehicle-induced net BRET from ligand-induced net BRET.

T1 sequence (Q9NQS5 whole entry): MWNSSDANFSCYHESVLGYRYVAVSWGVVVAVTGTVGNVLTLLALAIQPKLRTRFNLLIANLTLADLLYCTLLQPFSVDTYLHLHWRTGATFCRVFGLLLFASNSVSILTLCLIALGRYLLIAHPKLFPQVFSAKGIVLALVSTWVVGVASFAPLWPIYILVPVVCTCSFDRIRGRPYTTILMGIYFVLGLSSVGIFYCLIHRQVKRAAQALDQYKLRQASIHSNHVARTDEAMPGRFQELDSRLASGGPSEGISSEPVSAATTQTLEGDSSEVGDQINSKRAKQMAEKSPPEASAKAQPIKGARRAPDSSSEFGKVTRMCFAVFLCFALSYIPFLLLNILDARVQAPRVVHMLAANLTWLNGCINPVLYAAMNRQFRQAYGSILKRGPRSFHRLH

COC(c1cn(CC2OCC(F)(F)CO2)nn1)c1cc(C#CC2CC2)ccc1C (centres unmarked) [Compound I-725]
inhibition at 10 µM: > 75%
IC50: 300 to 1000 nM

CCc1cc(C#CC2CC2)cnc1-c1cn(CC2CCCCO2)nn1 (centres unmarked) [Compound I-220]
inhibition at 10 µM: > 75%
IC50: 300 to 1000 nM

Cc1cc(N2CC3CCC2CN3Cc2ccccn2)ccc1-c1cn(CC2CCCCO2)nn1 (centres unmarked) [Compound I-550]
inhibition at 10 µM: 50 to 75%

CN(C)c1cc(N2CC3(CCOCC3)C2)ccc1-c1cn(CC2OCC(C)(C)CO2)nn1 [Compound I-854]
inhibition at 2 µM: > 75%

Cn1ccc2c(C#CC3CC3)ccc(-c3cn(CC4CCCCO4)nn3)c21 (centres unmarked) [Compound I-230]
inhibition at 10 µM: ≤ 25%

Cc1cc(C#CC2(O)CCCC2)ccc1-c1cn(CC2CCCCO2)nn1 (centres unmarked) [Compound I-210]
IC50: 300 to 1000 nM

Cc1cc(C#CC2CC2)ccc1-c1cn(CC2CC(F)(F)CCO2)nn1 (centres unmarked) [Compound I-497]
inhibition at 10 µM: 25 to 50%

CC1(C)COC(Cn2cc(-c3ccc(N4CC(C)(CO)C4)cc3OC3CC3)nn2)OC1 [Compound I-767]
IC50: 300 to 1000 nM

CC1(C)COC(Cn2cc(-c3ccc(N4CC(C)(NCc5ccccn5)C4)cc3CC(F)(F)F)nn2)OC1 [Compound I-745]
inhibition at 2 µM: > 75%
IC50: 300 to 1000 nM

COC(Cn1cc(-c2ccc(C#CC3CC3)cc2C)nn1)c1ccccc1 (centres unmarked) [Compound I-73]
inhibition at 25 µM: ≤ 25%

CN(CC#Cc1cnc(-c2cn(CC3OCC(C)(C)CO3)nn2)c(OC2CC2)c1)C1CC1 [Compound I-858]
inhibition at 2 µM: > 75%

COCC(=O)N1CCCCC1Cn1cc(-c2ccc(C#CC3CC3)cc2C)nn1 (centres unmarked) [Compound I-192]
inhibition at 10 µM: ≤ 25%

Cc1cc(N2CC3(CCN(c4ccccn4)CC3)C2)ccc1-c1cn(CC2CCCCO2)nn1 (centres unmarked) [Compound I-567]
inhibition at 10 µM: 50 to 75%
IC50: 1000 to 3000 nM

Cc1cc(C#CC2CC2)ccc1-c1cn(C[C@H]2COC(C)(C)O2)nn1 [Compound I-222]
inhibition at 10 µM: 50 to 75%

Cc1cc(N2CC(C)(C)C2)c(C)cc1-c1cn(CC2OCC(C)(C)CO2)nn1 [Compound I-685]
inhibition at 10 µM: > 75%
IC50: 1000 to 3000 nM

Cc1cc(N2CC3(CCN(Cc4ccccc4)CC3)C2)ccc1-c1cn(CC2CCCCO2)nn1 (centres unmarked) [Compound I-156]
inhibition at 10 µM: 50 to 75%

Cc1cc(N2CCN(Cc3ccccn3)C(=O)C2)ccc1-c1cn(CC2OCC(C)(C)CO2)nn1 [Compound I-752]
inhibition at 10 µM: 25 to 50%

FC(F)(F)COc1cc(C#CC2CC2)cnc1-c1cn(CC2OCC3(CCC3)O2)nn1 (centres unmarked) [Compound I-815]
inhibition at 2 µM: > 75%

C(#CC1CC1)c1ccc(-c2cn(CC3CCOCC3)nn2)cc1 [Compound I-40]
inhibition at 25 µM: 25 to 50%

N#CCc1cc(C#CC2CC2)ccc1-c1cn(CC2CCCCO2)nn1 (centres unmarked) [Compound I-217]
inhibition at 10 µM: 25 to 50%

Cc1cc(C#CC2CC2)ccc1-n1cc(CC2CCOCC2)nn1 [Compound I-269]
inhibition at 10 µM: ≤ 25%

CN(C)c1cc(C#CCN2CC(C)(C)C2)c(F)cc1-c1cn(CC2OCC3(CCC3)O2)nn1 (centres unmarked) [Compound I-821]
inhibition at 10 µM: > 75%

Cc1cc(C#CC2CC2)ccc1-c1ccn(CC2CCCCO2)n1 (centres unmarked) [Compound I-325]
inhibition at 10 µM: ≤ 25%

Cc1cc(CN2CC(=O)NC2=O)ccc1-c1cn(CC2CCCCO2)nn1 (centres unmarked) [Compound I-558]
inhibition at 10 µM: ≤ 25%

C(#CC1CC1)c1ccc(-c2cn(C[C@H]3CCCCO3)nn2)cc1 [Compound I-24]
inhibition at 25 µM: > 75%
IC50: > 3000 nM

CN(c1cn(CC2OCC(C)(C)CO2)nn1)c1cc(C#N)ccc1Cl [Compound I-803]
inhibition at 10 µM: > 75%

Reference: patent US12617777B2, “GPR84 antagonists and uses thereof” (Liminal BioSciences Limited, priority 2021, dated 2026)
